Results taken from patent US12594346B2, “Crosslinked hydrogel for immune checkpoint blockade delivery” (GEORGIA TECH RESEARCH CORPORATION, priority 2020, dated 2026).

Test: Biotin-4-fluorescein (B4F) competition assay, binding affinity of chimeric proteins
Settings: room temperature

**Q.** With “commercial streptavidin: streptavidin (MP Biomedicals) [reference compound]” as the substance, how does the “binding behavior to biotin-4-fluorescein (fluorescence intensity, binding curve fits)” value read?
**A.** The value was “equivalent binding behavior”.
